This note sets out measurements from BindingDB's records for doi:10.1021/jacs.1c08060 (The University of Arizona, 2021).

What is called IC50 is the point on the concentration scale where inhibition reaches its midpoint.

Procathepsin L, sequence (P07711 whole entry): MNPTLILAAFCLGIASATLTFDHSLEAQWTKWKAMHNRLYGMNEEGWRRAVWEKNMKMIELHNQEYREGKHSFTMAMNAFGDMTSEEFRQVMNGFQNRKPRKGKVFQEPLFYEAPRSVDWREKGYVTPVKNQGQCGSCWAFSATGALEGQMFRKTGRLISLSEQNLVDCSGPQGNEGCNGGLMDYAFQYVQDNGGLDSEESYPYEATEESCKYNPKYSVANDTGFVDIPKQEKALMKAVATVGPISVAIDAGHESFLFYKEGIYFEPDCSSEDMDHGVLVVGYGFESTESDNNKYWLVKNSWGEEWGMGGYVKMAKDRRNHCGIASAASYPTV

The first assay addresses Replicase polyprotein 1ab (Severe acute respiratory syndrome coronavirus 2, UniProt P0DTD1). Nature of the assay: FRET-based enzymatic assay.
`C[C@H](NC(=O)[C@@H](c1cccnc1)N(C(=O)C(Br)Br)c1ccc(-c2ccccc2)cc1)c1ccc(Br)cc1` [Jun9-89-2R] came in with an IC50 of 0.08 µM.

With `C[C@H](NC(=O)C(c1cccnc1)N(C(=O)C(Cl)(Cl)Cl)c1ccc(-c2ccccc2)cc1)c1ccccc1` (stereo not given in full) [Jun9-72-4], the IC50 is > 20 µM.

Regarding `CCCCC1CCC(OC(=O)N[C@@H](CC(C)C)C(=O)N[C@H](C=O)C[C@@H]2CCNC2=O)CC1` (stereo not given in full) [Advanced SARS-CoV-2 Inhibitor 6e], the IC50 came out at 0.01 µM.

`C[C@H](NC(=O)C(c1cnccn1)N(C(=O)CCl)c1ccc(-c2ccccc2)cc1)c1ccccc1` (stereo not given in full) [Jun9-59-1] came in with an IC50 of 0.12 µM.

With `C[C@H](NC(=O)C(c1cccnc1)N(C(=O)CF)c1ccc(-c2ccccc2)cc1)c1ccccc1` (stereo not given in full) [Jun9-61-4], the IC50 is > 20 µM.

As for `C[C@H](NC(=O)[C@@H](c1cnccn1)N(C(=O)CCl)c1ccc(-c2ccccc2)cc1)c1ccccc1` [Jun9-57-3R], the IC50 worked out at 0.05 µM.

Molecule `O=C(NC1CCCC1)C(c1cccnc1)N(C(=O)CCl)c1ccc(-c2ccccc2)cc1` (stereo not given) [Jun9-55-1] displayed an IC50 of 0.3 µM.

In the case of `O=C(NC1CC1)C(c1cccnc1)N(C(=O)CCl)c1ccc(-c2ccccc2)cc1` (stereo not given) [Jun9-57-2], the IC50 came out at 0.22 µM.

In the case of `C=CC(=O)N(c1ccc(-c2ccccc2)cc1)C(C(=O)N[C@@H](C)c1ccccc1)c1cccnc1` (stereo not given in full) [Jun9-51-3], the 50% inhibitory concentration (IC50) was > 20 µM.

As to `C=CC(=O)N(c1ccc(-c2ccccc2)cc1)C(C(=O)NCc1ccccc1)c1cccnc1` (stereo not given) [Jun10-15-2], the IC50 is > 20 µM.

In the case of `C[C@H](NC(=O)C(c1cccnc1)N(C(=O)C(C)(Cl)Cl)c1ccc(-c2ccccc2)cc1)c1ccccc1` (stereo not given in full) [Jun9-76-4], the 50% inhibitory concentration (IC50) was > 20 µM.

Take `C[C@H](NC(=O)C(c1cccnc1)N(C(=O)CN=[N+]=[N-])c1ccc(-c2ccccc2)cc1)c1ccccc1` (stereo not given in full) [Jun9-61-1]: the IC50 was > 20 µM.

Consider `C[C@H](NC(=O)C(c1cccnc1)N(C(=O)/C=C/CN(C)C)c1ccc(-c2ccccc2)cc1)c1ccccc1` (stereo not given in full) [Jun10-31-4], for which the IC50 is > 20 µM.

For the molecule `CCOC(=O)/C=C/C(=O)N(c1ccc(-c2ccccc2)cc1)C(C(=O)N[C@@H](C)c1ccccc1)c1cccnc1` (stereo not given in full) [Jun9-72-3], the IC50 was > 20 µM.

With `C[C@H](NC(=O)C(c1cccnc1)N(C(=O)C(F)(F)Cl)c1ccc(-c2ccccc2)cc1)c1ccccc1` (stereo not given in full) [Jun9-77-2], the IC50 is > 20 µM.

On to `C[C@H](Cl)C(=O)N(c1ccc(-c2ccccc2)cc1)C(C(=O)N[C@@H](C)c1ccccc1)c1cccnc1` (stereo not given in full) [Jun9-77-1], for which the IC50 was > 20 µM.

Turning to `O=C(NC1CCCCC1)C(c1cccnc1)N(C(=O)CCl)c1ccc(-c2ccccc2)cc1` (stereo not given) [Jun9-55-2], it took 0.33 µM to reach half-maximal inhibition (IC50).

A further assay addresses Procathepsin L (Homo sapiens, UniProt P07711). Briefly: FRET-based enzymatic assay.
Molecule `COc1cccc2[nH]c(C(=O)N[C@@H](CC(C)C)C(=O)N[C@@H](C[C@@H]3CCNC3=O)C(=O)CO)cc12` [WO2005113580-Ex-02] returned an IC50 of 0.146 µM.

Turning to `CC(C)C[C@H](NC(=O)OCc1ccccc1)C(=O)N[C@@H](CC1CCNC1=O)C(O)S(=O)(=O)O` (stereo not given in full) [GC376], the IC50 came out at 0.00099 µM.

In the case of `CC(OC(C)(C)C)[C@H](NC(=O)OCc1ccccc1)C(=O)N[C@@H](CC1CCCCC1)C(=O)N[C@H](C=O)C[C@@H]1CCNC1=O` (stereo not given in full) [jm5b01461, Compound 45], the IC50 was found to be 0.0012 µM.
